The values that follow come from patent US20220184008A1, “MODULATORS OF INTRACELLULAR CHLORIDE CONCENTRATION” (FONDAZIONE ISTITUTO ITALIANO DI TECNOLOGIA, priority 2019, published 2022).

The target in this assay is T1, NKCC1 (Homo sapiens, UniProt P55011).
T1 construct: expressed in transfected cells; host or cells: HEK293
T1 sequence (P55011 1-1212): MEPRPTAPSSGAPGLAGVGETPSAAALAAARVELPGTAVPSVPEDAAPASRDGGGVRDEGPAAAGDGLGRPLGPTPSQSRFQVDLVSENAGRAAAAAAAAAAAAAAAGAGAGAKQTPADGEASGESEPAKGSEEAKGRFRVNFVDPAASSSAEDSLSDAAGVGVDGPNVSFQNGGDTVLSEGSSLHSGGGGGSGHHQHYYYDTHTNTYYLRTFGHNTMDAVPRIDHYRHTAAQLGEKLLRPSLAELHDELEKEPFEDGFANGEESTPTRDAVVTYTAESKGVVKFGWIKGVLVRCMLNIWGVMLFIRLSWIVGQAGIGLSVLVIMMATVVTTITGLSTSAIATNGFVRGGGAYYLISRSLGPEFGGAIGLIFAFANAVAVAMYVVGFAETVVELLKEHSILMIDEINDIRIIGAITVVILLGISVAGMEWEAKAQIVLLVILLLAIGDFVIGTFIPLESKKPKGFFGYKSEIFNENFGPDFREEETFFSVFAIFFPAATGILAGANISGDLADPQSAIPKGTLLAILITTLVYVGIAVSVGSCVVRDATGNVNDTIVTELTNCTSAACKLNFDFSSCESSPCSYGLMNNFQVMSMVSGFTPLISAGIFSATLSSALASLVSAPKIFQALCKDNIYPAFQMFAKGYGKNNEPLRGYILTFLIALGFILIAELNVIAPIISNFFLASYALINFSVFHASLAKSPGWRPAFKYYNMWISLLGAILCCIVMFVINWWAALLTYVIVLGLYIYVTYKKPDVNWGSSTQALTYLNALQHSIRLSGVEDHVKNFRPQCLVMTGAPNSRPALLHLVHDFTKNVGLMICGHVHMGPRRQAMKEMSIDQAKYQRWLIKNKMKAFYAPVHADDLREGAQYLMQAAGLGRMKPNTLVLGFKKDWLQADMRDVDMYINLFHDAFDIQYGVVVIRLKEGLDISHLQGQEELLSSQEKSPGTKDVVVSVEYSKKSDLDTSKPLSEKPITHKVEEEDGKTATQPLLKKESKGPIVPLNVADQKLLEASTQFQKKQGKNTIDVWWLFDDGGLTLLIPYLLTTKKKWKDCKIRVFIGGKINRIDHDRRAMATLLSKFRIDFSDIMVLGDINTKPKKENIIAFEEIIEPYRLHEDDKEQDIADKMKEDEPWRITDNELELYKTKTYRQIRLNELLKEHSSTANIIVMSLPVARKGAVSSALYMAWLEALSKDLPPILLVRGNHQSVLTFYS
The experiment in a line: Chloride kinetic assay (Cl-sensitive YFP) in NKCC1-transfected HEK293 cells. To be noted: for inhibition at 10 µM / NKCC1 Inhibition % 10 μM HEK Chloride YFP assay: NKCC1-transfected HEK293; for inhibition at 10 µM: read-out: NKCC1 Inhibition % 10 μM HEK Chloride YFP assay. Format: cell-based. The protocol:
FIG. 1: In vitro testing of the NKCC1 inhibitors in the chloride kinetic assay a) Example traces obtained in the chloride kinetic assay on HEK cells transfected with the YFP (mock) or with YFP and NKCC1. The arrow indicates the addition of NaCl (final concentration 74 mM) used to initiate the flux assay. b) Quantification of the effect of bumetanide (10 μM and 100 μM) or furosemide (10 μM and 100 μM) in the chloride kinetic assay on mock or NKCC1-transfected HEK293 cells. Data represents mean±sem from 5 independent experiments. c) Quantification of the effect of bumetanide and furosemide and 2 selected compounds (3.8, 3.17) in the chloride kinetic assay on NKCC1-transfected HEK293 cells. Data represents mean±sem from 5 independent experiments, and they are represented as % of the controls. *P<0.05, **P<0.01, ***P<0.001 Kruskal-Wallis Anova (Dunn's Post hoc Test); ###P<0.001 two-tailed unpaired Student t-test.
To screen in vitro the compounds efficiency in blocking NKCC1, a functional NKCC1 transporter assay was performed by measuring variation of Cl^− ion concentration in the cell through a Cl^− sensitive membrane-tagged yellow fluorescent protein (mbYFPQS, Addgene). mbYFPQS fluorescence is inversely dependent on the concentration of Cl^− inside the cell thus allowing an indirect estimation of the Cl^− transporter activity. In particular, HEK293 cells were transfected with NKCC1 or mock construct (control) together with the Cl^− sensitive YFP. After 2 DIV, the cells were treated with bumetanide and furosemide (as positive controls) or with each of the tested compounds of the invention in a Cl^− free medium. After 30 min, the inhibitory activity of the compounds was tested by monitoring fluorescence upon application of NaCl (FIG. 1a). Transported by NKCC1, Cl binds the YFP, leading to a fluorescence decrease. […] With the Cl kinetic assay, the NKCC1 inhibitory activity of the selected compounds was tested (FIG. 1c).

Like-named read-outs stand apart in the source and are kept apart here.

Regarding `CCCCNc1cc(C(=O)O)cc(S(N)(=O)=O)c1Oc1ccccc1` [Bumetanide, reference compound], under “Table 1”, the inhibition at 10 µM is 54%. The “effect on decrease in fluorescence upon NaCl application in NKCC1-transfected cells” value (pre-incubation at 10 μM and 100 μM) is recorded as “significantly reduced”.
Regarding `CCCCNc1ccc([N+](=O)[O-])cc1S(N)(=O)=O` [Compound 1.6, 2-(butylamino)-5-nitro-benzenesulfonamide], the inhibition at 10 µM (Table 1) stood at 11%.
Regarding `CCCCCCNc1ccc([N+](=O)[O-])cc1S(N)(=O)=O` [Compound 1.7, 2-(hexylamino)-5-nitro-benzenesulfonamide], the inhibition at 10 µM (Table 1) came to 25%.
For `CCCCCCCCNc1ccc([N+](=O)[O-])cc1S(N)(=O)=O` [Compound 1.8, 5-nitro-2-(octylamino)benzenesulfonamide], where the note is “Table 1”, the inhibition at 10 µM stood at 12%.
For `CC(C)(C)CCNc1ccc([N+](=O)[O-])cc1S(N)(=O)=O` [Compound 1.9, 2-(3,3-dimethylbutylamino)-5-nitro-benzenesulfonamide], the inhibition at 10 µM (Table 1) turned out to be 5%.
`CCCCNc1ccc([N+](=O)[O-])cc1S(=O)(=O)NC` [Compound 1.10, 2-(butylamino)-N-methyl-5-nitro-benzenesulfonamide]: the “NKCC1 Inhibition % 10 μM HEK Chloride YFP assay” value is given as “Inactive” (Table 1) and “Inactive” (Table 2).
With `CCCCCCNc1ccc([N+](=O)[O-])cc1S(=O)(=O)NC` [Compound 1.11, 2-(hexylamino)-N-methyl-5-nitro-benzenesulfonamide], the inhibition at 10 µM (Table 2) is 3.4%.
For the compound `CCCCCCCCNc1ccc([N+](=O)[O-])cc1S(=O)(=O)NC` [Compound 1.12, N-methyl-5-nitro-2-(octylamino)benzenesulfonamide], the “NKCC1 Inhibition % 10 μM HEK Chloride YFP assay” value is “Inactive” (Table 1) and “Inactive” (Table 2).
With `CNS(=O)(=O)c1cc([N+](=O)[O-])ccc1NCCC(C)(C)C` [Compound 1.13, 2-(3,3-dimethylbutylamino)-N-methyl-5-nitro-benzenesulfonamide], for the setting “Table 1”, the inhibition at 10 µM was 17%.
With `CCCCNc1ccc([N+](=O)[O-])cc1S(=O)(=O)N(C)C` [Compound 1.14, 2-(butylamino)-N,N-dimethyl-5-nitro-benzenesulfonamide], the “NKCC1 Inhibition % 10 μM HEK Chloride YFP assay” value by setting is: (Table 1) “Inactive”; (Table 2) “Inactive”.
As for `CCCCCCNc1ccc([N+](=O)[O-])cc1S(=O)(=O)N(C)C` [Compound 1.15, 2-(hexylamino)-N,N-dimethyl-5-nitro-benzenesulfonamide], the inhibition at 10 µM (Table 1) was 16%.
As to `CCCCCCCCNc1ccc([N+](=O)[O-])cc1S(=O)(=O)N(C)C` [Compound 1.16, N,N-dimethyl-5-nitro-2-(octylamino)benzenesulfonamide], the “NKCC1 Inhibition % 10 μM HEK Chloride YFP assay” value (Table 1) was “Inactive” and the “NKCC1 Inhibition % 10 μM HEK Chloride YFP assay” value (Table 2) is listed as “Inactive”.
For `CN(C)S(=O)(=O)c1cc([N+](=O)[O-])ccc1NCCC(C)(C)C` [Compound 1.17, 2-(3,3-dimethylbutylamino)-N,N-dimethyl-5-nitro-benzenesulfonamide], the “NKCC1 Inhibition % 10 μM HEK Chloride YFP assay” value is given as “Inactive” (Table 1) and “Inactive” (Table 2).
For the compound `CCCCNc1cc(Cl)c(C(=O)O)cc1S(N)(=O)=O` [Compound 2.2, 4-(butylamino)-2-chloro-5-sulfamoyl-benzoic acid], under “Table 1”, the inhibition at 10 µM turned out to be 36%.
`CCCCCCNc1cc(Cl)c(C(=O)O)cc1S(N)(=O)=O` [Compound 2.3, 2-chloro-4-(hexylamino)-5-sulfamoyl-benzoic acid]: under “Table 1”, the inhibition at 10 µM is 10%.
In the case of `CCCCCCCCNc1cc(Cl)c(C(=O)O)cc1S(N)(=O)=O` [Compound 2.4, 2-chloro-4-(octylamino)-5-sulfamoyl-benzoic acid], for the setting “Table 1”, the inhibition at 10 µM was determined as 14%.
As to `CC(C)(C)CCNc1cc(Cl)c(C(=O)O)cc1S(N)(=O)=O` [Compound 2.5, 2-chloro-4-(3,3-dimethylbutylamino)-5-sulfamoyl-benzoic acid], the “NKCC1 Inhibition % 10 μM HEK Chloride YFP assay” value is reported as “Inactive” (Table 1) and “Inactive” (Table 2).

What is called inhibition is the drop in the measured response relative to a control, in per cent.
